Key:
Zucker diabetic rats = experiment: Chronic infusion of OA-NO2 in Zucker diabetic rats (ZDF strain); type: in vivo, rat; conditions: 7.5 μg/kg/d via osmotic mini-pumps, 1 week, fasted
Method: Male 4-month-old Zucker obese and Zucker diabetic rats were from Charles River Laboratory (Wilmington, Mass.). All animals were housed in an air-conditioned room with a 12-hour light/dark cycle. All procedures and protocols were in accordance with guidelines set by the Laboratory Animal Care Committee at the University of Utah.
Two strains of Zucker rats, obese and diabetes (ZDF) (Charles River), were treated with vehicle (ethanol), OA-NO2 at 7.5 μg/kg/d, or OA at 7.5 μg/kg/d via an osmotic mini-pump. Under isoflurane anesthesia, the mini-pump was implanted under the skin of the neck area. Body weight, food intake, and collections of blood and urine samples were determined before and after treatment. Animals were fasted from 6:00 pm to 9:00 am before blood sampling. Blood sampling was conducted by making a small cut (˜2 mm) in the tail using razor blade. 24-hour urine was collected using metabolic cages.
To evaluate the efficacy of OA-NO2 for treatment of diabetes, Zucker diabetic rats were used. These animals develop severe hyperglycemia and hyperinsulinemia, the two major parameters of type 2 diabetes.

Zucker obese rats = experiment: Chronic infusion of OA-NO2 or OA in Zucker obese rats (obesity, hyperlipidemia, kidney injury); type: in vivo, rat; conditions: 7.5 μg/kg/day via osmotic mini-pump; for reduction of proteinuria (urinary protein excretion): 24-hour urine (FIG. 7); for plasma free fatty acid levels (non-esterified fatty acid): fasted (FIG. 3B); for plasma cholesterol levels: fasted (FIG. 4); for plasma HDL levels: fasted (FIG. 5A); for body weight gain: male 4-mo-old Zucker obese rats, vs. vehicle control (FIG. 1)
Method: Male 4-month-old Zucker obese and Zucker diabetic rats were from Charles River Laboratory (Wilmington, Mass.). All animals were housed in an air-conditioned room with a 12-hour light/dark cycle. All procedures and protocols were in accordance with guidelines set by the Laboratory Animal Care Committee at the University of Utah. Two strains of Zucker rats, obese and diabetes (ZDF) (Charles River), were treated with vehicle (ethanol), OA-NO2 at 7.5 μg/kg/d, or OA at 7.5 μg/kg/d via an osmotic mini-pump. Under isoflurane anesthesia, the mini-pump was implanted under the skin of the neck area. Body weight, food intake, and collections of blood and urine samples were determined before and after treatment. Animals were fasted from 6:00 pm to 9:00 am before blood sampling. Blood sampling was conducted by making a small cut (˜2 mm) in the tail using razor blade. 24-hour urine was collected using metabolic cages. Adult Zucker obese rats develop severe obesity and hyperlipidemia but are relatively resistant to diabetes. Therefore, these animals were used for testing the weight-loss and lipid lowering effects of OA-NO2. To determine whether these effects are directly attributable to the nitration of the fatty acid, the parent fatty acid (OA) was used as a control. Starting from 4 mo of age, Zucker obese rats were chronically infused for 2 weeks with vehicle, OA-NO2 (9-nitrooleic acid and 10-nitrooleic acid are purchased from Cayman Chemical, Ann Arbor, MI and used as an 1:1 mixture), or OA each at 7.5 μg/kg/day via an osmotic mini-pump. Parameters including body weight, food intake, the lipid profile, oxidative stress, and urinary protein excretion were determined. Animals were fasted from 6:00 pm to 9:00 am before blood sampling.

Compound	hyperglycemia (plasma glucose) (Zucker diabetic rats; vs. Day 0 (FIG. 8A))	plasma insulin levels (Zucker diabetic rats; vs. Day 0 (FIG. 8B))	plasma TBARS (index of systemic oxidative stress), increase in obese vs. lean rats (Zucker obese rats; Zucker obese rats, 2 weeks (FIG. 6))	reduction of proteinuria (urinary protein excretion) (Zucker obese rats; Zucker obese rats, 2 weeks)	plasma free fatty acid levels (non-esterified fatty acid) (Zucker obese rats; Zucker obese rats, 2 weeks)	plasma cholesterol levels (Zucker obese rats; Zucker obese rats, 2 weeks)	plasma HDL levels (Zucker obese rats; Zucker obese rats, 2 weeks)	plasma triglyceride (Zucker obese rats; Zucker obese rats, 2 weeks, fasted, vs. vehicle control (FIG. 3A))	food intake (Zucker obese rats; Zucker obese rats, 2 weeks, vs. vehicle (FIG. 2))	body weight gain (Zucker obese rats; 2 weeks)
nitrooleic acid [OA-NO2]	significantly attenuated	tended to reduce	significantly attenuated	50%	almost completely normalized	unaffected	significantly increased	significant triglyceride-lowering effect	significantly reduced	less than that in the vehicle control
CCCCCCCC/C=C\CCCCCCCC(=O)O [OA, Oleic acid, reference compound]	–	–	–	no significant effect	lack of an effect	unaffected	ineffective	–	–	not different
